Measured values published in patent US20170232115A1 (priority 2011, published 2017).
No end group written: not given here.

Experiments:
[1] = cited from earlier work
[2] = In vitro transdermal permeation, modified Franz diffusion cells, HPLC; type: in vitro ADME, human
Protocol: Finally, a number of these cosolvent formulations were evaluated for their in vitro transdermal permeation properties (FIG. 3X2). Note that these cosolvents are also known to function as permeability enhancers in some formulations (10-1 1). For this series of experiments, human skin obtained from abdominoplastic surgery was mounted on modified Franz diffusion cells and drug permeation was determined as a function of time using high performance liquid chromatography.
The Franz diffusion cell is an essential tool in the field of transdermal drug delivery. Patient-derived skin is placed between the cell cap and the solution chamber. The cell cap is exposed to the environment allowing the stratum corneum to also be exposed to the environment. The solution chamber is filled with an isotonic diffusion buffer. Additionally the solution chamber has an injection port that allows for difhsion buffer to be removed without disturbing the setup. Finally, the solution chamber is surrounded by a water jacket that allows for temperature control. The Franz diffusion cell allows for in vitro studies of transdennal delivery to be carried out using physiological conditions. Note that penetration of any solute through the patient-derived skin into the difhsion buffer is equivalent to that solute reaching systemic circulation in an in vivo system. […] Determination of silica content in different layers of the skin will be determined using enzymatic tissue digestion, and inductively coupled plasma mass spectroscopy (ICP mass spec). Both the SLB and nanoporous particle core can be fluorescently tagged to allow for confocal microscopy. In addition, the skin samples can be microtomed after treatment and incubation with protocells so that they can be imaged using TEM.

[3] = biological target: hepatocyte growth factor receptor (c-Met) (Homo sapiens, UniProt P08581); conditions: peptide identified by phage display
hepatocyte growth factor receptor (c-Met), sequence (P08581 25-932): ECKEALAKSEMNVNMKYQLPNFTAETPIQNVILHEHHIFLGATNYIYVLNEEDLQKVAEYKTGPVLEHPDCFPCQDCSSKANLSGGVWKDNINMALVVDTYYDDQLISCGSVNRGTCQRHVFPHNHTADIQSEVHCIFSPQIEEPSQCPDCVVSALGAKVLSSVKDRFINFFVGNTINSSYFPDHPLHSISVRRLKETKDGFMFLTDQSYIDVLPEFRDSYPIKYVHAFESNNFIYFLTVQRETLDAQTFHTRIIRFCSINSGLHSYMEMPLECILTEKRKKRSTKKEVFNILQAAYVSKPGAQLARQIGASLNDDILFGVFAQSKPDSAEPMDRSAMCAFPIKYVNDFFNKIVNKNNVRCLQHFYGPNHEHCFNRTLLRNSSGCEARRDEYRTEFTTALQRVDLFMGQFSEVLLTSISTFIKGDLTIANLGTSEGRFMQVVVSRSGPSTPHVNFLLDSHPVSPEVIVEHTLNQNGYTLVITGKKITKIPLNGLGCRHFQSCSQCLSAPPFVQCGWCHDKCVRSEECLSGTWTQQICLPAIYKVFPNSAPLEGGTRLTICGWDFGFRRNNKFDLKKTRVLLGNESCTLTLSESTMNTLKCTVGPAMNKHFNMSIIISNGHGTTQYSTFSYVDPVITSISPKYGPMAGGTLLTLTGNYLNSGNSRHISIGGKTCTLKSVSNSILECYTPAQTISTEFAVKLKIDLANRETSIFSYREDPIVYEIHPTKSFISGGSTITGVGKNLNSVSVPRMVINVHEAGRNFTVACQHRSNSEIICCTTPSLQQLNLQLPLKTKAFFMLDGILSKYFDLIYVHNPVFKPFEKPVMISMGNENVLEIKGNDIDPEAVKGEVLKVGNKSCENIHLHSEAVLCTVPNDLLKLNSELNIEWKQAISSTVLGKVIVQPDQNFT

CN1CCCC1c1cccnc1 (stereo not drawn) [Nicotine]
solubility in H2O [1]: miscible in H2O

CC(C)Cc1ccc(C(C)C(=O)O)cc1 (stereo not drawn) [ibuprofen]
solubility in H2O [1]: insoluble in H2O

Cc1ccc(NC(=O)c2ccc(CN3CCN(C)CC3)cc2)cc1Nc1nccc(-c2cccnc2)n1 [Imatinib]
permeability through the skin ([2]; DMSO): highest permeability | flux (rate of permeation through the skin) ([2]; DMSO formulation): 0.225 μg/cm2hr | permeation through the skin ([2]; water (pH 7) as solvent system, 24 hours): no imatinib permeated through the skin

ASVHFPP [MC40]
affinity for hepatocyte growth factor receptor (c-Met) [3]: nanomolar affinity
